Experimental data from patent publication US9884066B2, “Bile acid-basic amino acid conjugates and uses thereof” (priority 2013, dated 2018).
“And” between values parts separate entries of the source, which are not always exact repeats. Identical values can stand only once. Like-named read-outs stand apart in the source and are kept apart here.

Key:
[1] = system: livers of mice fed a high fat diet (HFD); assay: Histological evaluation of livers by H&E staining, scored by Modified Brunt Criteria (five-week HFD model); assay type: in vivo, C57BL mice; settings: end of week 5; for Portal inflammation / Ballooning and disarray / Fibrosis: score per liver section; for Ballooning and disarray: * = and megakarya; for Fibrosis: ** = oval cell proliferation
Method: For liver histology, animals were sacrificed and liver tissues were removed and fixed in 4% formalin at room temperature. Liver sections were subjected to Hematoxylin-Eosin staining (PathoVet Veterinary Pathology Services, Rehovot, Israel).
Histological evaluation of livers was performed by H&E staining at the end of week 5. In the figure, arrows indicate micro and macrovesicular steatosis, and arrow heads indicate hepatocyte ballooning. […] This histological observation was in correlation with the elevated levels of blood liver enzymes SGOT and SGPT described above.

[2] = system: mice fed a high fat diet (HFD); assay: High fat diet (HFD) model in mice, five-week feeding with supplemented diets
[3] = system: mice fed a high fat diet (HFD); settings: for Liver weight: FIG. 12d
Description: Mice were randomly divided into two dietary groups:
1) Control diet: low-fat diet (LFD), 16% calories from fat (n=5);
2) High-fat diet (HFD): 60% calories from fat (mainly palm stearin) (n=16).
In order to determine the effects of CDCArg following the onset of liver steatosis, mice were first treated for 10 weeks with HFD to develop hepatic fat accumulation. Thereafter, the HFD-fed mice were divided to two equal groups (n=8 in each group): (a) continued the previous HFD treatment, and (b) HFD+CDCArg 0.5% w/w. In this part of the experiment mice were pair-fed (15.5 kCal/day per mice). The LFD control group consumed on average the same amount of calories per day per mice. The duration of treatment with CDCArg was four (4) weeks. Food consumption and gain of weight were evaluated.
To assess the impact of CDCArg on intestinal absorption, fecal lipid contents were measured before and after CDCArg consumption. Total lipids were extracted from feces using Folch's method (Folch et al., 1957, J Biol Chem, 226:497-509) after collecting feces during weeks 9-10 and 12-13. […] The effect of CDCArg on insulin resistance was evaluated using intraperitoneal glucose tolerance test (IPGTT). Glucose tolerance was assessed in the mice during the eighth and fourteenth weeks of the study (before and after the beginning of treatment with CDCArg). IPGTT was performed in 12 hours-fasted mice by injecting glucose (2 g/kg in 20% solution) intraperitoneally. Blood samples were obtained by cutting the tail tip and glucose concentration was measured after 0, 30, 60, 90, and 120 minutes.

[4] = system: SREBP1c; assay: Liver protein level by Western blot; assay type: in vivo, mice; settings: beta-actin as control; FIG. 13C
Description: (§1) FIG. 13. Effect of CDCArg on lipogenic gene expression and energy expenditure related genes in the liver. Treatments: mice were fed with LFD for 14 weeks or with HFD for 10 weeks. At week 10 the HFD group was divided randomly into two equal groups that were pair fed. One group received HFD, while the other group received HFD+CDCArg. mRNA levels of (A) PGC1α, (B) PPARα. (C) Protein level of sterol regulatory element binding protein 1c (SREBP1). *p<0.05, statistically different from control by student t-test. GAPDH was used as housekeeping normalizing gene.
SREBP1c was analyzed by Western blot analysis using beta-actin as control. Abs: Anti SREBP-1 Santa Cruse (Sc-367); Secondary goat Anti-Rabbit IgG, Jackson ImmunoResearch, Mouse Anti-Actin (612656) BD Transduction Laboratories. Secondary goat Anti-mouse IgG, Jackson ImmunoResearch.

[5] = system: mice fed a high fat diet (HFD); settings: mouse, in vivo
[6] = system: PPARα; assay: Liver gene expression, mRNA by reverse-transcription and real time PCR; assay type: in vivo, mice; settings: GAPDH normalizing gene; FIG. 13B
Description: as §1
(§2) Gene expression analyses of PPARα and PGC1α were performed by quantifying mRNA levels by reverse-transcription and real time PCR. GAPDH (glyceraldehyde 3-phosphate dehydrogenase) was used as housekeeping normalizing gene. The following primers were used: […]

[7] = system: PGC1α; assay: as above; assay type: in vivo, mice; settings: GAPDH normalizing gene; FIG. 13A
Description: as §1, §2

[8] = system: AMPK; assay: Liver AMPK and pAMPK levels by Western blot; assay type: in vivo, mice
Method: The levels of AMPK and pAMPK were analyzed using Western blot analysis.

[9] = system: mice fed a high fat diet (HFD); assay: Intraperitoneal glucose tolerance test (IPGTT) in HFD-fed mice; assay type: in vivo; settings: week fourteen; glucose 2 g/kg i.p., 12 hours-fasted; FIG. 11
Description: FIG. 11. Effect of CDCArg on insulin resistance as evaluated by intra-peritoneal glucose tolerance test (IPGTT). (A) IPGTT performed at weeks eight and (B) fourteen (before and after the beginning of treatment). Values are expressed as mean±SEM (n=8-9 animals per group). Means with * are statistically higher than Control group, p<0.05 (t.test (a) one way ANOVA, Post Hoc dunnett test (b)).

N=C(N)NCCC[C@H](N)C(=O)O [Arg, L-arginine, reference compound]
Liver damage by histology (H&E staining) ([1]; FIG. 9): increased liver damage
Portal inflammation [1]: 0
Ballooning and disarray [1]: 0
Fibrosis [1]: 0
Average triglycerides in the blood ([2]; end of week 5, FIG. 5a): higher level of blood triglycerides
Average total cholesterol in the blood ([2]; end of week 5, compared to control low fat diet, FIG. 4): significantly increased levels of total blood cholesterol

CCOC(=O)[C@H](CCCNC(=N)N)NC(=O)CC[C@@H](C)[C@H]1CC[C@H]2[C@@H]3[C@H](O)C[C@@H]4C[C@H](O)CC[C@]4(C)[C@H]3CC[C@]12C [CDCArg, Chenodeoxycholyl-Arginine-Ethyl Ester]
Body weight gain ([3]; HFD+CDCArg 0.5% w/w for 4 weeks after 10 weeks HFD, vs continued HFD, FIG. 10a): prevented this weight gain
Adipose tissue weight ([3]; HFD+CDCArg compared to the HFD group, FIG. 10b): substantially lower
Liver micro and macro steatosis (histological evaluation) ([3]; HFD+CDCArg vs HFD group, FIG. 12e): lesser liver micro and macro steatosis
Liver weight ([3]; HFD+CDCArg vs HFD group): significantly lower
Liver weight ([3]; HFD+CDCArg vs control (LFD) group): even lesser than in control
Alkaline phosphatase levels in plasma ([3]; mouse, in vivo): not significantly altered
Plasma albumin levels ([3]; mouse, in vivo): significantly higher
SGPT levels ([3]; plasma, HFD+CDCArg compared with the HFD group, FIG. 12a): significantly lower
SGOT levels ([3]; plasma, HFD+CDCArg compared with the HFD group, FIG. 12b): significantly lower
Fat contents in feces ([3]; weeks 12-13, Folch's method, FIG. 10d): significantly higher
SREBP1c protein expression in the liver [4]: suppress the protein expression
Portal inflammation [1]: 0 and 1
Ballooning and disarray [1]: 0
Fibrosis [1]: 0
General toxicity (plasma creatinine, sodium, potassium and chloride levels) [5]: without toxicity effects
Saturated fat-induced liver damage (blood SGOT, SGPT) [5]: did not potentiate saturated fat-induced liver damage
Average weight of adipose tissue (testicular fat) ([2]; end of week 5, compared to HFD alone or HFD+Arg, FIG. 3): significantly lower increase in testicular fat weight
Average liver weight ([2]; end of week 5, compared to control diet, FIG. 7): no difference in liver weight compared to control
Average body weight (increase) ([2]; five weeks, among groups that consumed a high fat diet, FIG. 2): lowest increase in body weight
Plasma level of insulin ([2]; five weeks, compared to the HFD group, FIG. 8b): significantly decreased
Plasma level of leptin ([2]; five weeks, compared to the HFD group, FIG. 8c): significantly decreased
PPARα mRNA level in the liver [6]: activated
PGC1α mRNA level in the liver [7]: activated
Ratio of phosphorylated AMPK (pAMPK) to AMPK [8]: tending to be higher
Area under the curve of the glycemic response (IPGTT) [9]: decreasing the area under the curve of the glycemic response
Peak glucose values in the IPGTT [9]: lowering the peak glucose values
